Experiments:
[1] = system: heteromeric ASIC1a+3 channels expressed with PAR2 in CHO cells; assay: Whole-cell patch clamp, heteromeric ASIC1a+3 channels expressed with PAR2 in CHO cells; type: cell-based, Chinese hamster; settings: PAR2-AP 10^−5 M for 1 min; I pH 6.6; ASIC3:other subunit 1:3; n = 8
Description: ASIC3, ASIC1a, ASIC1b, ASIC2b, and PAR2 complementary DNAs (cDNAs) were used for heterologous expression in CHO cells as described previously (Wang et al., 2013). In brief, CHO cells were cultured at 37 °C in a humidified atmosphere of 5% CO2 and […] and passaged twice a week. Transient transfection of CHO cells was performed using HilyMax liposome transfection reagent (Dojindo Laboratories). CHO cells were maintained in F-12 Nutrient Mixture (added 1.176 g of NaHCO3/L medium) supplemented with 10% fetal bovine serum and 1% gluta-MAXTM-1 (100×; Invitrogen). When ASIC3 and PAR2 cDNAs were co-transfected, the ratio was kept at 1:1. All plasmids used contained, in addition to the desired ASIC3 cDNA, the coding sequence for enhanced green fluorescent protein to aid identification of transfected cells. Electrophysiological measurements were performed 24–48 h after transfection.
Whole-cell patch clamp and voltage clamp recordings were carried out at room temperature (22–25 °C) using a MultiClamp-700B amplifier and Digidata-1440A A/D converter (Axon Instruments, CA, USA). […]
(§1) Drugs purchased from Sigma and used in the experiments include hydrochloric acid, 2-furoyl-LIGRLO-NH2 (a PAR2-activating peptide (PAR2-AP)), trypsin, FSLLRY-NH2, APETx2, and capsazepine. […] The application pipette tips were positioned ∼30 μm away from the recorded neurons. […]

rat DRG neurons = assay: Current clamp of acidosis-evoked action potentials (spikes) in rat DRG neurons; type: cell-based; settings: PAR2-AP 10^−5 M for 1 min; pH 6.6 for 5 s; capsazepine 10 μM; control 3.5 ± 0.6; P < 0.05; n = 9
From the text: The experimental protocol was approved by the animal research ethics committee of Hubei University of Science and Technology (No. 2016–67). All procedures conformed to international guidelines on the ethical use of animals, and every effort was made to minimize the number of animals used and their sufferings. Five- to 6-week-old Sprague–Dawley male rats were anesthetized with 7% chloral hydrate and then decapitated. The DRGs were taken out and transferred immediately into Dulbecco’s modified Eagle’s medium (DMEM, Sigma) at pH 7.4. After the removal of the surrounding connective tissues, the DRGs were minced with fine spring scissors and the ganglion fragments were placed in a flask containing 5 ml of DMEM in which trypsin (type II-S, Sigma) 0.5 mg/ml, collagenase (type I-A, Sigma) 1.0 mg/ml, and DNase (type IV, Sigma) 0.1 mg/ml had been dissolved and incubated at 35 °C in a shaking water bath for 25–30 min. Soybean trypsin inhibitor (type II-S, Sigma) 1.25 mg/ml was then added to stop trypsin digestion. The incubating solution was then replaced by external solution. […]
as §1

## 2-furoyl-LIGRLO-NH2 [PAR2-AP]
[1]
  increase of peak current of heteromeric ASIC1a+3 channels: 51.6 ± 6.5%
Rat DRG neurons
  mean number of spikes induced by acidosis after PAR2-AP pretreatment: 6.3 ± 0.9
